Patent US20120189673A1, “POLYPEPTIDES AND USES THEREOF” (priority 2009, published 2012)

Columns and labels:
P. aeruginosa = assay: Viable count analysis, P. aeruginosa; assay type: cell-based, Pseudomonas aeruginosa; conditions: for killing in human plasma compared with physiological buffer: 20% human citrate plasma
Protocol: Viable count analysis—E. coli strains were grown to mid-logarithmic phase in Todd-Hewitt (TH). P. aeruginosa strains were grown in TH overnight. Bacteria were washed and diluted in 10 mM Tris, pH 7.4 containing 5 mM glucose. 2×10^6 cfu/ml bacteria were incubated in 50 μl, at 37° C. for 2 h with the C-terminal TFPI-derived peptides GGL27, TKR22, or LIK17 at the indicated concentrations. Additional experiments were performed in 10 mM Tris, pH 7.4, containing 0.15 M NaCl, either alone or with 20% normal or heat inactivated citrate-plasma. Serial dilutions of the incubation mixture were plated on TH agar, followed by incubation at 37° C. overnight and cfu determination.

E. coli = assay: Bacterial membrane permeabilization, impermeant probe FITC (fluorescence microscopy); assay type: cell-based, Escherichia coli; conditions: 30 μM peptide
Protocol: Fluorescence microscopy. The impermeant probe FITC (Sigma-Aldrich, St. Louis, USA) was used for monitoring of bacterial membrane permeabilization. S. aureus ATCC 29213 bacteria were grown to mid-logarithmic phase in TSB medium. Bacteria were washed and resuspended in buffer (10 mM Tris, pH 7.4, 0.15M NaCl, 5 mM glucose) to yield a suspension of 1×10^7 CFU/ml. 100 μl of the bacterial suspension was incubated with 30 μM of the respective peptides at 30° C. for 30 min. Microorganisms were then immobilized on poly (L-lysine)-coated glass slides by incubation for 45 min at 30° C., followed by addition onto the slides of 200 μl of FITC (6 μg/ml) in buffer and a final incubation for 30 min at 30° C. […] Bacteria were visualized using a Nikon Eclipse TE300 (Nikon, Melville, USA) inverted fluorescence microscope equipped with a Hamamatsu C4742-95 cooled CCD camera (Hamamatsu, Bridgewater, USA) and a Plan Apochromat ×100 objective (Olympus, Orangeburg, USA). […]
Fluorescence microscopy—Fluorescein isothiocyanate (FITC; Sigma-Aldrich, St. Louis, USA) was used for monitoring of bacterial membrane permeabilization. […] Bacteria were visualized using a Nikon Eclipse TE300 (Nikon, Melville, USA) inverted fluorescence microscope equipped with a Hamamatsu C4742-95 cooled CCD camera (Hamamatsu, Bridgewater, USA) and a Plan Apochromat ×100 objective (Olympus, Orangeburg, USA). […]

Sequence	potentiating effect of native plasma compared with heat-inactivated plasma (P. aeruginosa)	killing in human plasma compared with physiological buffer (P. aeruginosa)	permeabilization of bacterial membranes (E. coli)
GGLIKTKRKRKKQRVKIAYEEIFVKNM [GGL27, C-terminal peptide of TFPI, plasmin-generated]	less significant	not enhanced	permeabilized bacterial membranes
LIKTKRKRKKQRVKIAY [LIK17]	less significant	not enhanced	permeabilized bacterial membranes
